Format in all cases: in vivo, rat
The subject of data set [1] is male spontaneously hypertensive (SHR) rats. Briefly: Effect on blood pressure (telemetry) in spontaneously hypertensive rats. The following applies: 0.15 mg/kg/day. From the text:
Effect of Example 2 on Blood Pressure Male spontaneously hypertensive (SHR) rats weighing 250-300 g with age of 7 weeks are acclimated to a reversed light cycle (8:00 am lights off and 8:00 pm lights on) and fed regular chow and water ad libitum. Implantable telemetry devices (model TA11PA-C40, Data Sciences International) are implanted into the abdominal aorta. After recovering from surgery, rats are placed in individual cages in a quiet telemetry facility room for measuring blood pressure (mean arterial pressure, MAP) and heart rate (HR). Digitized pressure signals are acquired for 20 second every 5 min using DSI Dataquest IV 4.0 software. The 31 SHR rats are randomized by MAP into two groups and treated twice daily for 14 days with vehicle (n=15) (10% acacia, 0.05% antifoam in purified water) or 0.15 mg/kg/day Example 2. The first dose is given between 6:00 and 6:30 am (2 h prior to lights off) and the second dose is given between 4:00 and 4:30 pm. The daily food consumption and body weight gain are also monitored. MAP, HR, and body weight (BW) data are analyzed by repeated measures analysis of covariance (ANCOVA) with baseline as the covariate. Food consumption (FC) data are analyzed by repeated measures analysis of variance (ANOVA). The mean blood pressure across the time course of the study (days 1-14) for the group treated with 0.15 mg/kg/day of Example 2 is 4.83 mm Hg less than that of the control group with a p-value of 0.0007 (Table 1).

For data set [2], the system named is male Sprague Dawley rats. Briefly: Radiolabeled phosphate absorption in rats, Studies 1-3 (plasma radioactivity). The following applies: Study 2, rats; for Absorption (vs. vehicle control): mean ± SEM. Here is the method:
Effect of Example 2 in Combination with an NPT2b Inhibitor (Compound A) on Phosphate Absorption in Rats
NPT2b inhibitor dosing solutions: Compound A and poly-1-vinylpyrrolidone-co-vinyl acetate (PVP-VA, Sigma-Aldrich) are weighed into a bottle at a ratio of 30% Compound A and 70% PVP-VA by weight. A clear yellow solution is prepared by diluting the mixture in MeOH followed by the addition of 2 mol NaOH per mol Compound A using 5 N NaOH. The solution is spray dried by a stream of hot nitrogen and the solid dispersion powder is collected and then further dried in a vacuum oven. Doses for the sprayed dried solid dispersion (SDD) are expressed as active pharmaceutical ingredient (API) throughout.
To make the Compound A dosing solution, an appropriate amount of Compound A SDD is weighed in a vial and dissolved in water (10 mL/kg dosing volume). […] The subsequent solutions for lower doses are prepared by serial dilutions with water. PVP-VA at 7 mg/mL is used as a vehicle control.
NHE3 inhibitor dosing solutions: To make the Example 2 dosing solution, an appropriate amount of the compound is weighed in a vial and dissolved in 1% HEC (10 mL/kg dosing volume). […] The subsequent solutions for lower doses are prepared by serial dilutions with HEC.
To make the radiolabeled phosphate dosing solution, a 16.25 mM Na2HPO4, 0.9% saline, pH 7.4 solution is prepared and filtered using a sterile, 0.22 μm, polyethersulfone, Millex-GP Syringe Filter Unit (EMD Millipore). Radioactive phosphate (H3^33PO4, Perkin Elmer) is added at about 2.5 μCi per mL of the solution and filtered again.
Three separate studies are performed. In these studies, male Sprague Dawley rats, are randomized into groups with approximately equal mean body weights. Following an overnight fast, all the animals are dosed at 10 mL/kg with either vehicle, varying doses of Compound A (Study 1), varying doses of Example 2 (Study 2) or 1.2 mg/kg Compound A and varying doses of Example 2 (Study 3). 15 min later, radiolabeled phosphate is orally dosed in a 2 mL volume. 15 min later, blood is collected and plasma is prepared. Radioactivity (dpm) in 50 μL plasma is measured by scintillation counting and is used to calculate phosphate absorption. The results are normalized with the vehicle controls representing 100% absorption. The curves are fitted with nonlinear regression with variable slope using GraphPad Prism 6 to calculate the ED50 and Emax given in Table 7. […] No curve fit was performed for Compound A alone in Study 1.

Data set [3] deals with male Sprague Dawley rats. Briefly: Phosphate absorption 15 min after radiolabeled phosphate (Example 2, Compound A, combination). The following applies: Example 2 0.4 mg/kg, plasma 15 min after radiolabeled phosphate, P=0.046 versus vehicle control. The procedure: Effect of Example 2 in Combination with an NPT2b Inhibitor (Compound A) on Phosphate Absorption and Intestinal Phosphate Retention in Rats
The purpose of this study is to investigate in rats the effect of Example 2, Compound A, and an Example 2/Compound A combination on phosphate absorption 15 min after dosing the compounds and the phosphate retained in the intestine 4.25 h after dosing the compounds. The latter is a measure of the oral phosphate load which is absorbed over an extended period.
Two vehicles are used in this study: 1) 1% HEC and 2) 0.46% poly-1-vinylpyrrolidone-co-vinyl acetate in water (PVP-VA vehicle). The vehicle control group in this study receives a 1:1 combination of the two vehicles.
The Example 2, Compound A and phosphate dosing solutions are prepared similarly as described above, except the doses are 0.4 mg/kg for Example 2 and 10 mg/kg for Compound A and they are prepared at a concentration where they would be dosed in a 5 mL/kg volume. […]
Male Sprague Dawley rats are fasted 4 h and then administered appropriate vehicles, 10 mg/kg Compound A, 0.4 mg/kg Example 2, or a combination of both compounds. […] Radioactivity in plasma is measured by scintillation counting and used to calculate the inhibition of phosphate absorption. […] Statistical significance is determined by ANOVA with a Dunnett's comparison to the Example 2/Compound A combination using JMP 12.1.

As a reminder, the ED50 is the midpoint of the dose-response relation. One may read the % Inhibition as the drop in the measured response relative to a control, in per cent.

Take `CN1Cc2c(Cl)cc(Cl)cc2[C@H](c2cccc(S(=O)(=O)NCCOCCOCCN/C(=N\C(N)=O)NCCCCN/C(=N/C(N)=O)NCCOCCOCCNS(=O)(=O)c3cccc([C@@H]4CN(C)Cc5c(Cl)cc(Cl)cc54)c3)c2)C1.Cl.Cl` [Example 2, [[4-[[N′-Carbamoyl-N-[2-[2-[2-[[3-[(4S)-6,8-dichloro-2-methyl-3,4-dihydro-1H-isoquinolin-4-yl]phenyl]sulfonylamino]ethoxy]ethoxy]ethyl]carbamimidoyl]amino]butylamino]-[2-[2-[2-[[3-[(4S)-6,8-dichloro-2-methyl-3,4-dihydro-1H-isoquinolin-4-yl]phenyl]sulfonylamino]ethoxy]ethoxy]ethylamino]methylene]urea dihydrochloride]: the “Effect on body weight (BW)” value in data set [1] (14 days) is “No significant effect”. Also, the “Effect on food consumption (FC)” value in data set [1] (14 days) is reported as “No significant effect”. In addition, in data set [1] (14 days), the “Effect on heart rate (HR)” value was “No significant effect”. Moreover, the “Difference in mean blood pressure vs vehicle” value in data set [1] (days 1-14, less than control, p-value 0.0007) came out at 4.83 mm Hg. In addition, the “Mean blood pressure over days 1-14” value in data set [1] (twice daily for 14 days) amounted to 153.33 mm Hg. In addition, in the data set with male Sprague Dawley rats [2] (Rattus norvegicus, Example 2 alone), the median effective dose (ED50) was 0.041 mg/kg. Besides, the “Absorption (vs. vehicle control)” value with male Sprague Dawley rats [2] (Example 2 0.001 mg/kg) is given as 97.16 ± 20.76%; with male Sprague Dawley rats [2] (Example 2 0.003 mg/kg), 100.81 ± 20.74%; in the data set on male Sprague Dawley rats [2] (Example 2 0.01 mg/kg) it was 75.15 ± 15.52%; with male Sprague Dawley rats [2] (Example 2 0.03 mg/kg) it was 83.17 ± 17.99%; in the data set with male Sprague Dawley rats [2] (Example 2 0.1 mg/kg), 57.29 ± 11.20%; in the data set on male Sprague Dawley rats [2] (Example 2 0.3 mg/kg), 71.09 ± 13.98%. Moreover, the “Absorption (vs. vehicle control)” value in the data set with male Sprague Dawley rats [2] (Example 2 1 mg/kg) amounted to 44.29 ± 9.09%; in the data set with male Sprague Dawley rats [2] (Example 2 3 mg/kg) it was 60.04 ± 12.00%; in the data set on male Sprague Dawley rats [2] (Example 2 10 mg/kg), 63.47 ± 8.39%. Further, the “% Inhibition at the highest dose (phosphate absorption)” value in the data set with male Sprague Dawley rats [2] (Example 2 highest dose tested (10 mg/kg), dihydrochloride) was found to be 37%. Also, the “Inhibition of phosphate absorption” value in the data set on male Sprague Dawley rats [3] was found to be 29%.

The values above are taken from US12428377B2, “Sodium-hydrogen exchanger 3 inhibitor compounds” (Eli Lilly and Company, priority 2019, dated 2025).
